Results from ChEMBL document CHEMBL4406899, “Design, synthesis, and biological evaluation of 2-amino-N-(2-methoxyphenyl)-6-((4-nitrophenyl)sulfonyl)benzamide derivatives as potent HIV-1 Vif inhibitors” (Bioorg Med Chem Lett, 2019).

Tested on: Human immunodeficiency virus 1
Assay: Antiviral activity against HIV1 infected in human H9 cells assessed as decrease in p24 antigen production incubated for 7 days by ELISA
Type: functional, organism-based
Details: Human immunodeficiency virus 1, H9, 168 h

Structure (SMILES)	EC50 [µM]
Nc1cccc(Sc2ccc([N+](=O)[O-])cc2)c1C(=O)Nc1ccccc1O	9.8
CS(=O)(=O)Oc1ccccc1NC(=O)c1c(N)cccc1Sc1ccc([N+](=O)[O-])cc1	79.9
COc1ccc(NC(=O)c2c(N)cccc2Sc2ccc([N+](=O)[O-])cc2)c(OC)c1	20.3
COc1ccccc1NC(=O)c1c(N)cccc1S(=O)(=O)c1ccc(C(F)(F)F)cc1	4.62
COc1ncccc1NC(=O)c1c(N)cccc1Sc1ccc([N+](=O)[O-])cc1	25.9
COc1ncccc1NC(=O)c1c(N)cccc1S(=O)(=O)c1ccc([N+](=O)[O-])cc1	228
Nc1cccc(Sc2ccc([N+](=O)[O-])cc2)c1C(=O)Nc1ccccc1I	125
COc1ccccc1NC(=O)c1c(N)cccc1Sc1cc(C)cc(C)c1	9.6
COc1ccccc1NC(=O)c1c(N)cccc1S(=O)(=O)c1ccc(F)cc1	12.3
COc1ccccc1NC(=O)c1c(N)cccc1S(=O)(=O)c1cc(C)cc(C)c1	244
Nc1ccccc1NC(=O)c1c(N)cccc1Sc1ccc([N+](=O)[O-])cc1	15.1
Nc1cccc(S(=O)(=O)c2ccc([N+](=O)[O-])cc2)c1C(=O)Nc1ccccc1I	30.9

The next lines start with the values.

EC50 [µM]	Structure (SMILES)
2.12	COc1ccccc1NC(=O)c1c(N)cccc1Sc1ccc([N+](=O)[O-])cc1
176	COc1ccccc1NC(=O)c1c(N)cccc1Sc1ccncc1
24.2	COc1ccccc1NC(=O)c1c(N)cccc1Sc1ccc(C(F)(F)F)cc1
235	COc1ccccc1NC(=O)c1c(N)cccc1S(=O)(=O)c1ccc(C(=O)O)cc1
252	COc1ccccc1NC(=O)c1c(N)cccc1Sc1ccc(C(=O)O)cc1
44.8	COc1ccccc1NC(=O)c1c(N)cccc1Sc1ccc(F)cc1

Tested on: not listed separately
Assay: Cytotoxicity against human H9 cells assessed as reduction in cell viability incubated for 7 days by MTT assay
Type: cell-based
Details: not given

Structure (SMILES)	CC50 at 168 h [µM]
COc1ccccc1NC(=O)c1c(N)cccc1Sc1ccc([N+](=O)[O-])cc1	462
Nc1cccc(Sc2ccc([N+](=O)[O-])cc2)c1C(=O)Nc1ccccc1O	153
COc1ccccc1NC(=O)c1c(N)cccc1Sc1ccncc1	569
CS(=O)(=O)Oc1ccccc1NC(=O)c1c(N)cccc1Sc1ccc([N+](=O)[O-])cc1	422
COc1ccc(NC(=O)c2c(N)cccc2Sc2ccc([N+](=O)[O-])cc2)c(OC)c1	82.5
COc1ccccc1NC(=O)c1c(N)cccc1Sc1ccc(C(F)(F)F)cc1	352
COc1ccccc1NC(=O)c1c(N)cccc1S(=O)(=O)c1ccc(C(F)(F)F)cc1	444
COc1ncccc1NC(=O)c1c(N)cccc1Sc1ccc([N+](=O)[O-])cc1	182
Nc1cccc(Sc2ccc([N+](=O)[O-])cc2)c1C(=O)Nc1ccccc1I	407
COc1ccccc1NC(=O)c1c(N)cccc1Sc1cc(C)cc(C)c1	181
COc1ccccc1NC(=O)c1c(N)cccc1S(=O)(=O)c1ccc(F)cc1	499
Nc1ccccc1NC(=O)c1c(N)cccc1Sc1ccc([N+](=O)[O-])cc1	427
COc1ccccc1NC(=O)c1c(N)cccc1Sc1ccc(F)cc1	543
Nc1cccc(S(=O)(=O)c2ccc([N+](=O)[O-])cc2)c1C(=O)Nc1ccccc1I	382

Tested on: not listed separately
Assay: Selectivity index, ratio of CC50 for human H9 cells to EC50 for antiviral activity against HIV-1
Type: toxicity
Details: read-out: Ratio CC50/EC50

Structure (SMILES)	selectivity ratio
COc1ccccc1NC(=O)c1c(N)cccc1Sc1ccc([N+](=O)[O-])cc1	263
Nc1cccc(Sc2ccc([N+](=O)[O-])cc2)c1C(=O)Nc1ccccc1O	15.6
COc1ccccc1NC(=O)c1c(N)cccc1Sc1ccncc1	3.23
CS(=O)(=O)Oc1ccccc1NC(=O)c1c(N)cccc1Sc1ccc([N+](=O)[O-])cc1	5.28
COc1ccc(NC(=O)c2c(N)cccc2Sc2ccc([N+](=O)[O-])cc2)c(OC)c1	4.06
COc1ccccc1NC(=O)c1c(N)cccc1Sc1ccc(C(F)(F)F)cc1	14.6
COc1ccccc1NC(=O)c1c(N)cccc1S(=O)(=O)c1ccc(C(F)(F)F)cc1	96.5
COc1ncccc1NC(=O)c1c(N)cccc1Sc1ccc([N+](=O)[O-])cc1	7.03
Nc1cccc(Sc2ccc([N+](=O)[O-])cc2)c1C(=O)Nc1ccccc1I	3.26
COc1ccccc1NC(=O)c1c(N)cccc1Sc1cc(C)cc(C)c1	18.9
COc1ccccc1NC(=O)c1c(N)cccc1S(=O)(=O)c1ccc(F)cc1	53.7
Nc1ccccc1NC(=O)c1c(N)cccc1Sc1ccc([N+](=O)[O-])cc1	28.3
COc1ccccc1NC(=O)c1c(N)cccc1Sc1ccc(F)cc1	15.6
Nc1cccc(S(=O)(=O)c2ccc([N+](=O)[O-])cc2)c1C(=O)Nc1ccccc1I	12.4
